{"source": "ChEMBL document CHEMBL1141157", "about": "“A combination of docking, QM/MM methods, and MD simulation for binding affinity estimation of metalloprotein ligands” (J Med Chem, 2005)", "data": [{"target": "T1, Matrix metalloproteinase-9 (Homo sapiens, UniProt P14780)", "T1 sequence (P14780 whole entry)": "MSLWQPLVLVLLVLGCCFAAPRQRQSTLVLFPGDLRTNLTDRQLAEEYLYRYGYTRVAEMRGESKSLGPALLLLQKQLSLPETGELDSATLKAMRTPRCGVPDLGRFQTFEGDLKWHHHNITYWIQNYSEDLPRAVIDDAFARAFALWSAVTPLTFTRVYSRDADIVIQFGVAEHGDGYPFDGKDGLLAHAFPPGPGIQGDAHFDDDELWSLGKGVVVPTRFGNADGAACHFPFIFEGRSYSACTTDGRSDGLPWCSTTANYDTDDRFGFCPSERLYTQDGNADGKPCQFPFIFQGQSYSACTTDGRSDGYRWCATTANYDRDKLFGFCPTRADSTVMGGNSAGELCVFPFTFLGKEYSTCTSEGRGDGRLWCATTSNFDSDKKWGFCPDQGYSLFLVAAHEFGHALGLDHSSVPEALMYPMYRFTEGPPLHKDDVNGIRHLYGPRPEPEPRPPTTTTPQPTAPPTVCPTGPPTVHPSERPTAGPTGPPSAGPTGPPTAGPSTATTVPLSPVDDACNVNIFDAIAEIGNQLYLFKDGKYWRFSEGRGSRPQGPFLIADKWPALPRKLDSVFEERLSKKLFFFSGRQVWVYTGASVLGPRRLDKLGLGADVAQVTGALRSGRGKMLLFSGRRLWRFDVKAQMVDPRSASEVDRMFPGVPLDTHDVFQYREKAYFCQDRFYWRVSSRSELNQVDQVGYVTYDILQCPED", "experiment": "Inhibition constant for human matrix metalloprotease-9 (MMP-9)", "conditions": "not given", "units": {"Ki": "nM"}, "values": [{"smiles": "CCOP(=O)(c1ccc(C)cc1)N1Cc2ccccc2C[C@@H]1C(=O)NO", "note": "(stereo partly drawn)", "Ki": 41.8}, {"smiles": "CCOP(=O)(c1ccc(OC)cc1)N1Cc2ccccc2C[C@H]1C(=O)NO", "note": "(stereo partly drawn)", "Ki": 349}, {"smiles": "CCOP(=O)(c1ccccc1)N1Cc2ccccc2C[C@@H]1C(=O)NO", "note": "(stereo partly drawn)", "Ki": 42.7}, {"smiles": "CCOP(=O)(c1ccc(OC)cc1)N1Cc2ccccc2C[C@@H]1C(=O)NO", "note": "(stereo partly drawn)", "Ki": 5.05}, {"smiles": "CCOP(=O)(c1ccc(F)cc1)N1Cc2ccccc2C[C@@H]1C(=O)NO", "note": "(stereo partly drawn)", "Ki": 51.9}]}, {"target": "T1, Matrix metalloproteinase-9", "experiment": "Inhibition of MOCAc-Pro-Leu-Gly-Leu-A2p (Dnp)-Ala-Arg-NH2 binding to human matrix metalloprotease-9 (MMP-9)", "conditions": "read-out: Log 1/Ki (converted)", "units": {"Ki": "nM"}, "values": [{"smiles": "CCOP(=O)(c1ccc(OC)cc1)N1Cc2cc(N)ccc2C[C@@H]1C(=O)NO", "note": "(stereo partly drawn)", "Ki": 11}, {"smiles": "CCOP(=O)(c1ccc(C)cc1)N1Cc2ccccc2C[C@@H]1C(=O)NO", "note": "(stereo partly drawn)", "Ki": 41.8}, {"smiles": "CCOP(=O)(c1ccc(N)cc1)N1Cc2ccccc2C[C@@H]1C(=O)NO", "note": "(stereo partly drawn)", "Ki": 95.5}, {"smiles": "CCOP(=O)(c1ccc(Oc2ccccc2)cc1)N1Cc2ccccc2C[C@@H]1C(=O)NO", "note": "(stereo partly drawn)", "Ki": 0.0794}, {"smiles": "CCOP(=O)(CCc1ccccc1)N1Cc2ccccc2C[C@@H]1C(=O)NO", "note": "(stereo partly drawn)", "Ki": 38.3}, {"smiles": "CCOP(=O)(c1ccc(Oc2ccncc2)cc1)N1Cc2ccccc2C[C@@H]1C(=O)NO", "note": "(stereo partly drawn)", "Ki": 0.6}, {"smiles": "CCOP(=O)(c1ccc(OC)cc1)N1Cc2ccccc2C[C@H]1C(=O)NO", "note": "(stereo partly drawn)", "Ki": 349}, {"smiles": "CCOP(=O)(c1ccc(Oc2ccc(N)cc2)cc1)N1Cc2ccccc2C[C@@H]1C(=O)NO", "note": "(stereo partly drawn)", "Ki": 0.1}, {"smiles": "CCOP(=O)(c1ccc(OC)cc1)N1CCC[C@@H]1C(=O)NO", "note": "(stereo partly drawn)", "Ki": 316}, {"smiles": "CCOP(=O)(c1ccc(OC)cc1)N1CC2Nc3ccccc3C2C[C@@H]1C(=O)NO", "note": "(stereo partly drawn)", "Ki": 1.13}, {"smiles": "COc1ccc(P(=O)(OCCc2ccc(-c3ccccc3)cc2)N2Cc3ccccc3C[C@@H]2C(=O)NO)cc1", "note": "(stereo partly drawn)", "Ki": 6.47}, {"smiles": "CCOP(=O)(c1ccccc1)N1Cc2ccccc2C[C@@H]1C(=O)NO", "note": "(stereo partly drawn)", "Ki": 42.7}, {"smiles": "CCN(CC)CCOP(=O)(c1ccc(OC)cc1)N1Cc2ccccc2C[C@@H]1C(=O)NO", "note": "(stereo partly drawn)", "Ki": 16.7}, {"smiles": "COc1ccc(P(=O)(OCC2CCCCC2)N2Cc3ccccc3C[C@@H]2C(=O)NO)cc1", "note": "(stereo partly drawn)", "Ki": 4.56}, {"smiles": "COc1ccc(P(=O)(OCCc2ccccn2)N2Cc3ccccc3C[C@@H]2C(=O)NO)cc1", "note": "(stereo partly drawn)", "Ki": 3.42}, {"smiles": "CCOCCOc1ccc(P(=O)(OCC)N2Cc3ccccc3C[C@@H]2C(=O)NO)cc1", "note": "(stereo partly drawn)", "Ki": 14.2}, {"smiles": "COc1ccc(P(=O)(OC)N2Cc3ccccc3C[C@@H]2C(=O)NO)cc1", "note": "(stereo partly drawn)", "Ki": 2.03}, {"smiles": "CCOP(=O)(c1cccc(F)c1)N1Cc2ccccc2C[C@@H]1C(=O)NO", "note": "(stereo partly drawn)", "Ki": 80.2}, {"smiles": "CCOP(=O)(c1ccc(OC)cc1)N1Cc2ccccc2C[C@@H]1C(=O)NO", "note": "(stereo partly drawn)", "Ki": 5.05}, {"smiles": "CCOP(=O)(c1ccc(F)cc1)N1Cc2ccccc2C[C@@H]1C(=O)NO", "note": "(stereo partly drawn)", "Ki": 51.9}, {"smiles": "CCOP(=O)(c1cccs1)N1Cc2ccccc2C[C@@H]1C(=O)NO", "note": "(stereo partly drawn)", "Ki": 59.2}, {"smiles": "CCOP(=O)(c1ccccc1F)N1Cc2ccccc2C[C@@H]1C(=O)NO", "note": "(stereo partly drawn)", "Ki": 32.1}, {"smiles": "CCOP(=O)(c1ccc(OC)cc1)N1CCN(C(=O)OCc2ccccc2)C[C@@H]1C(=O)NO", "note": "(stereo partly drawn)", "Ki": 5.2}, {"smiles": "CCOCCOP(=O)(c1ccc(OC)cc1)N1Cc2ccccc2C[C@@H]1C(=O)NO", "note": "(stereo partly drawn)", "Ki": 6.35}, {"smiles": "CCOP(=O)(c1ccncc1)N1Cc2ccccc2C[C@@H]1C(=O)NO", "note": "(stereo partly drawn)", "Ki": 278}, {"smiles": "COc1ccc(P(=O)(OC2CCCCC2)N2Cc3ccccc3C[C@@H]2C(=O)NO)cc1", "note": "(stereo partly drawn)", "Ki": 6.58}, {"smiles": "CCOP(=O)(c1ccc(-c2ccccc2)cc1)N1Cc2ccccc2C[C@@H]1C(=O)NO", "note": "(stereo partly drawn)", "Ki": 0.31}, {"smiles": "CCOP(=O)(c1ccc(OC)cc1)N1Cc2ccsc2C[C@@H]1C(=O)NO", "note": "(stereo partly drawn)", "Ki": 3.8}]}]}
